Consider two molecules from paper PMC9838653 (Biochemistry, 2022).

The target in this assay is C4-reductase from serotype HS:15 (HS:15) (Campylobacter jejuni, UniProt F2X7A6). Kind of assay: X-ray crystal structure, […] A. The class given is binding. To be noted: co-crystallised with 5 mM NADPH and 5 mM GDP; pH 7.5; active site.

SMILES strings stand for the structures.

As to `NC(=O)C1=CN([C@@H]2O[C@H](COP(=O)(O)OP(=O)(O)OC[C@H]3O[C@@H](n4cnc5c(N)ncnc54)[C@H](OP(=O)(O)O)[C@@H]3O)[C@@H](O)[C@H]2O)C=CC1` [NADPH], the “X-ray crystal structure, 1.45 A” value is “the corresponding electron densities for the GDP and NADPH ligands were unambiguous”.

For the molecule `Nc1nc2c(ncn2[C@@H]2O[C@H](COP(=O)(O)OP(=O)(O)O)[C@@H](O)[C@H]2O)c(=O)[nH]1` [GDP], the “X-ray crystal structure, 1.45 A” value is “the corresponding electron densities for the GDP and NADPH ligands were unambiguous”.
